The results in this text go back to patent US7625917B2, “Thiolesters and uses thereof” (priority 1998, dated 2009).

One test concerns HIV-1RF. Kind of test: XTT cytoprotection assay (antiviral activity). It is filed as cell-based. Conditions: for EC50: read-out: EC50; for loss of antiviral activity of BITA vs disulfide form, fold decrease: from Table 2. An excerpt:
One exemplary means to determine antiviral activity is with CEM-SS cells and virus (e.g., HIV-1RF) (MOI=0.01) using the XTT (2,3-bis[2-methoxy-4-nitro-5-sulfophenyl]-5-[(phenylamino)carbonyl]-2H-tetrazolium hydroxide) cytoprotection assay, as described by Rice (1993) PNAS 90:9721-9724, and Rice (1997) Antimicrob. Agents Chemother. 41:419-426. Briefly, cells are infected with HIV-1 RF (or other virus to be tested) in the presence of various dilutions of test compounds (thiolesters and controls). The cultures are incubated for seven days. During this time control cultures without protective compounds (i.e., compounds with anti-viral activity) replicate virus, induce syncytia, and result in about 90% cell death. The cell death is measured by XTT dye reduction. XTT is a soluble tetrazolium dye that measures mitochondrial energy output, similar to MTT. Positive controls using dextran sulfate (an attachment inhibitor) or 3′-Azido-2′-3′-dideoxythymidine, AZT (a reverse transcriptase inhibitor) are added to each assay. Individual assays are done in duplicate using a sister plate method.
Effective antiviral concentrations providing 50% cytoprotection (EC50), and cellular growth inhibitory concentrations causing 50% cytotoxicity (IC50) are calculated.
A general note: Formazan colour is commonly taken as a measure of viable cells.

The subject of the next test is CEM-SS cells. In words: cells. It is filed as cell-based. As to the method: Agents Chemother. […] Briefly, cells are infected with HIV-1 RF (or other virus to be tested) in the presence of various dilutions of test compounds (thiolesters and controls). The cultures are incubated for seven days. […] The cell death is measured by XTT dye reduction. XTT is a soluble tetrazolium dye that measures mitochondrial energy output, similar to MTT. Positive controls using dextran sulfate (an attachment inhibitor) or 3′-Azido-2′-3′-dideoxythymidine, AZT (a reverse transcriptase inhibitor) are added to each assay. Individual assays are done in duplicate using a sister plate method.

The target in test [1] is T1, recombinant HIV-1 NCp7 protein (Human immunodeficiency virus type 1 group M subtype B, UniProt P03347).
T1 construct: recombinant HIV-1 NCp7 protein
Kind of test: Trp37 zinc finger fluorescence (zinc ejection) assay. It is filed as biochemical. As to the method: Zinc finger reactivity was measured using a Zn specific fluorochrome, TSQ, N-(6-methoxy-8-quinolyl)-p-toluenesulfonamide, assay or a Trp37 zinc finger fluorescence assay. Fluorescent measurements of the Trp37 residue in the C-terminal finger of recombinant HIV-1 NCp7 protein were performed as described by Rice (1995) Science 270:1194-1197; Rice (1997) Antimicrob. Agents Chemother. 41:419-426. Measurement of Zn ejection from both fingers was measured using the Zn-selective fluorchrome probe TSQ (Molecular Probes, Eugene Oreg.) as described by Rice (1996) J. Med. Chem 39:3606-3616. […] Briefly, 50 nM NCp7 was treated with test compounds for 1 hour at RT in […] buffer containing 10% glycerol and 50 mM Tris-HCl (pH 7.5). Labeled oligomer (0.1 picomole, end labeled [^32P] was added in an equal volume of buffer containing 10% glycerol, 50 mM Tris-HCl (pH 7.5), 400 mM KCl and 40 mM MgCl2. The reaction was continued for 15 min at room temperature, and a total of […] (or ¼ of the total reaction volume) was separated on nondenaturing 4.5% polyacrylamide gels in 0.5× Tris-Borate electrophoresis buffer. NCp7-oligomer complexes were visualized by autoradiography.
Changes in the intrinsic fluorescence of aromatic protein moieties are commonly used to monitor a reaction which involves a change in protein conformation. In the present invention, fluorescence can be used to monitor the loss of metal ion from a zinc finger, e.g., the loss of zinc from a CCHC retroviral zinc finger protein, after contact with a thiolester of the invention. The intrinsic fluorescence of Trp37 in the second zinc finger of HIV-1 NC protein has been used to monitor nucleic acid binding and conformation of the zinc finger complex (see, Summers (1992) supra).
Zinc ejection is measured by the ability of compounds to chemically attack the cysteines in purified NCp7 protein resulting in a loss of fluorescence due to the. movement of the tryptophan 37 residue […] position on the protein. Zinc ejection is measured and expressed as either percent decrease in total fluorescence or decrease in relative fluorescence units per min during a 30 min assay (RFU/min). A thiolester is considered within the scope of the invention if any amount of zinc ejection is detected.

Where [2] appears, read: Table 1, 50% cytotoxicity, read-out: IC50.
The mark [3] stands for this setting: Table 2, 50% cytotoxicity, read-out: IC50.
Where [4] appears, read: Table 4, 50% cytotoxicity, read-out: IC50.

Like-named read-outs stand apart in the source and are kept apart here. Some results are limits rather than exact numbers.

One may read the EC50 as the concentration needed to bring the measured effect to its halfway point. As for `CC(=O)NS(=O)(=O)c1ccc(-n2sc3ccccc3c2=O)cc1` [Compound 2 BITA, N-[4-(3-oxo-3H-benz[d]isothiazol-2-yl)phenylsulfonyl] acetamide], in the test on HIV-1RF (Human immunodeficiency virus 1, Table 1), the concentration giving a half-maximal response (EC50) came to 12.6 µM. Further, in the test with CEM-SS cells (Homo sapiens, CEM-SS, Table 1, 50% cytotoxicity, read-out: IC50), the IC50 is 34 µM.
Regarding `CC(=O)NS(=O)(=O)c1ccc(NC(=O)c2ccccc2SSc2ccccc2C(=O)Nc2ccc(S(=O)(=O)NC(C)=O)cc2)cc1` [Compound 2 D, N,N′-(2,2′-dithiodibenzoyl)-bis-sulfacetamide], in the test on HIV-1RF (Table 1), the EC50 was determined as 1.5 µM. In the test with CEM-SS cells (setting [2]), the IC50 was over 200 µM.
For `O=C(NS(=O)(=O)c1ccc(-n2sc3ccccc3c2=O)cc1)c1ccccc1` [Compound 3 BITA] the same measures were 9.3 µM and 49.5 µM.
For `O=C(NS(=O)(=O)c1ccc(NC(=O)c2ccccc2SSc2ccccc2C(=O)Nc2ccc(S(=O)(=O)NC(=O)c3ccccc3)cc2)cc1)c1ccccc1` [Compound 3 D] the same measures were 3.8 µM and 54.1 µM.
For `O=c1c2ccccc2sn1-c1ccc(S(=O)(=O)Nc2ccc(Cl)nn2)cc1` [Compound 4 BITA] the same measures were 7.1 µM and 19.2 µM.
On to `O=C(Nc1ccc(S(=O)(=O)Nc2ccc(Cl)nn2)cc1)c1ccccc1SSc1ccccc1C(=O)Nc1ccc(S(=O)(=O)Nc2ccc(Cl)nn2)cc1` [Compound 4 D], for which the EC50 in the test on HIV-1RF (Table 1) was found to be 2.9 µM. Besides, in the test with CEM-SS cells (setting [2]), the IC50 turned out to be 18.3 µM.
For `O=c1c2ccccc2sn1-c1ccc(S(=O)(=O)Nc2ncccn2)cc1` [Compound 5 BITA] the same measures were 6.5 µM and 50.8 µM.
For `O=C(Nc1ccc(S(=O)(=O)Nc2ncccn2)cc1)c1ccccc1SSc1ccccc1C(=O)Nc1ccc(S(=O)(=O)Nc2ncccn2)cc1` [Compound 5 D] the same measures were 2 µM and 46.4 µM.
Regarding `COc1cc(NS(=O)(=O)c2ccc(-n3sc4ccccc4c3=O)cc2)nc(OC)n1` [Compound 6 BITA], in the test on HIV-1RF (Table 1), the EC50 was 7.6 µM. For the same compound, in the test with CEM-SS cells (setting [2]), the IC50 is 56.6 µM.
For `COc1cc(NS(=O)(=O)c2ccc(NC(=O)c3ccccc3SSc3ccccc3C(=O)Nc3ccc(S(=O)(=O)Nc4cc(OC)nc(OC)n4)cc3)cc2)nc(OC)n1` [Compound 6 D] the same measures were 2.1 µM and 52.5 µM.
For `COc1ccnc(NS(=O)(=O)c2ccc(-n3sc4ccccc4c3=O)cc2)n1` [Compound 7 BITA] the same measures were 8.8 µM and 57.4 µM.
For `COc1ccnc(NS(=O)(=O)c2ccc(NC(=O)c3ccccc3SSc3ccccc3C(=O)Nc3ccc(S(=O)(=O)Nc4nccc(OC)n4)cc3)cc2)n1` [Compound 7 D] the same measures were 4.2 µM and 56.7 µM.
Consider `COc1cnc(NS(=O)(=O)c2ccc(-n3sc4ccccc4c3=O)cc2)nc1` [Compound 8 BITA], for which the EC50 in the test with HIV-1RF (Table 1) is 17.8 µM. For the same compound, the IC50 in the test with CEM-SS cells (setting [2]) came to 57.6 µM.
For `COc1cnc(NS(=O)(=O)c2ccc(NC(=O)c3ccccc3SSc3ccccc3C(=O)Nc3ccc(S(=O)(=O)Nc4ncc(OC)cn4)cc3)cc2)nc1` [Compound 8 D] the same measures were 2.1 µM and 55.5 µM.
For `Cc1cc(C)nc(NS(=O)(=O)c2ccc(-n3sc4ccccc4c3=O)cc2)n1` [Compound 9 BITA] the same measures were 6.9 µM and 17.1 µM.
Turning to `Cc1cc(C)nc(NS(=O)(=O)c2ccc(NC(=O)c3ccccc3SSc3ccccc3C(=O)Nc3ccc(S(=O)(=O)Nc4nc(C)cc(C)n4)cc3)cc2)n1` [Compound 9 D], the EC50 in the test with HIV-1RF (Table 1) was determined as 1.6 µM. Also, in the test on CEM-SS cells (setting [2]), the IC50 was 32.2 µM.
For `COc1ccc(NS(=O)(=O)c2ccc(-n3sc4ccccc4c3=O)cc2)nn1` [Compound 12 BITA] the same measures were 22.6 µM and 55.3 µM.
For `COc1ccc(NS(=O)(=O)c2ccc(NC(=O)c3ccccc3SSc3ccccc3C(=O)Nc3ccc(S(=O)(=O)Nc4ccc(OC)nn4)cc3)cc2)nn1` [Compound 12 D] the same measures were 4.2 µM and 53.8 µM.
For the compound `O=c1c2ccccc2sn1-c1ccc(S(=O)(=O)Nc2cnc3ccccc3n2)cc1` [Compound 17 BITA], the EC50 with HIV-1RF (Table 1) came to 9.2 µM. For the same compound, the IC50 with CEM-SS cells (setting [2]) was found to be 54.7 µM.
For `O=C(Nc1ccc(S(=O)(=O)Nc2cnc3ccccc3n2)cc1)c1ccccc1SSc1ccccc1C(=O)Nc1ccc(S(=O)(=O)Nc2cnc3ccccc3n2)cc1` [Compound 17 D] the same measures were 0.72 µM and 22.2 µM.
For `Cc1cc(NS(=O)(=O)c2ccc(-n3sc4ccccc4c3=O)cc2)nc(C)n1` [Compound 19 BITA] the same measures were 6.5 µM and 39.7 µM.
For `Cc1cc(NS(=O)(=O)c2ccc(NC(=O)c3ccccc3SSc3ccccc3C(=O)Nc3ccc(S(=O)(=O)Nc4cc(C)nc(C)n4)cc3)cc2)nc(C)n1` [Compound 19 D] the same measures were 1.9 µM and 18.2 µM.
As for `Cc1noc(NS(=O)(=O)c2ccc(-n3sc4ccccc4c3=O)cc2)c1C` [Compound 20 BITA], in the test on HIV-1RF (Table 1), the EC50 was 12.8 µM. The IC50 in the test with CEM-SS cells (setting [2]) was 39 µM.
For `Cc1noc(NS(=O)(=O)c2ccc(NC(=O)c3ccccc3SSc3ccccc3C(=O)Nc3ccc(S(=O)(=O)Nc4onc(C)c4C)cc3)cc2)c1C` [Compound 20 D] the same measures were 2.5 µM and 44.2 µM.
As for `NC(N)=NS(=O)(=O)c1ccc(NC(=O)c2ccccc2SSc2ccccc2C(=O)Nc2ccc(S(=O)(=O)N=C(N)N)cc2)cc1` [Compound 21 D], the EC50 with HIV-1RF (Table 1) was 111 µM. For the same compound, in the test on CEM-SS cells (setting [2]), the IC50 is over 316 µM.
Consider `NS(=O)(=O)c1ccc(NS(=O)(=O)c2ccc(-n3sc4ccccc4c3=O)cc2)cc1` [Compound 22 BITA], for which the EC50 in the test with HIV-1RF (Table 1) was determined as 6.2 µM. In the test with CEM-SS cells (setting [2]), the IC50 was determined as 18.1 µM.
With `NS(=O)(=O)c1ccc(NS(=O)(=O)c2ccc(NC(=O)c3ccccc3SSc3ccccc3C(=O)Nc3ccc(S(=O)(=O)Nc4ccc(S(N)(=O)=O)cc4)cc3)cc2)cc1` [Compound 22 D], the EC50 in the test on HIV-1RF (Table 1) was found to be 2.3 µM. Further, in the test on CEM-SS cells (read-out: toxicity / IC50), the IC50 turned out to be 43 µM.
As to `NS(=O)(=O)c1ccc(Cn2sc3ccccc3c2=O)cc1` [Compound 23 BITA], the EC50 in the test on HIV-1RF (Table 2) was 13.8 µM. Further, in the test with HIV-1RF, the “loss of antiviral activity of BITA vs disulfide form, fold decrease” value turned out to be 42 fold. In addition, the IC50 with CEM-SS cells (read-out: toxicity / IC50) was 53.7 µM.
Consider `NS(=O)(=O)c1ccc(CCn2sc3ccccc3c2=O)cc1` [Compound 24 BITA], for which, in the test on HIV-1RF (Table 2), the EC50 amounted to 2 µM. In addition, the “loss of antiviral activity of BITA vs disulfide form, fold decrease” value in the test on HIV-1RF stood at 5 fold. Further, the IC50 in the test on CEM-SS cells (setting [3]) stood at 45.5 µM.
On to `NS(=O)(=O)c1ccc(CCNC(=O)c2ccccc2SSc2ccccc2C(=O)NCCc2ccc(S(N)(=O)=O)cc2)cc1` [Compound 24 D, N,N′-(2,2′-dithiodibenzoyl)-bis-4-(2-aminoethyl)benzene-sulfonamide], for which the EC50 with HIV-1RF (Table 2) stood at 0.41 µM. Also, the IC50 in the test with CEM-SS cells (setting [3]) was determined as 52.8 µM.
As to `Nc1cccc(S(=O)(=O)c2cccc(NC(=O)c3ccccc3SSc3ccccc3C(=O)Nc3cccc(S(=O)(=O)c4cccc(N)c4)c3)c2)c1` [Compound 35], in the test with CEM-SS cells (setting [4]), the IC50 was 81.5 µM. The “zinc finger reactivity / zinc ejection rate” value in test [1] worked out at 0.92 RFU/min.
For `CC(=O)Nc1cccc(S(=O)(=O)c2cccc(NC(=O)c3ccccc3SSc3ccccc3C(=O)Nc3cccc(S(=O)(=O)c4cccc(NC(C)=O)c4)c3)c2)c1` [Compound 36] the same measures were 5.9 µM and 2 RFU/min.
